Measured values: ChEMBL document CHEMBL1156471, “Targeting host cell furin proprotein convertases as a therapeutic strategy against bacterial toxins and viral pathogens” (J Biol Chem, 2007)
The source made the active and inactive calls. The rule behind the calls is not given here. Non-standard residues stand in square brackets, D forms with d. Residues, ends and D or L forms follow the SMILES beside them. βAla = NCCC(=O)O

Key:
[1] = tested on: U-251; assay: Protection against anthrax PA63-lethal toxin complex-induced cytotoxicity in human U251 cells at 20 uM at 400 ng/ml by MTT test; type: cell-based
[2] = tested on: Bacillus anthracis; assay: Protection against Bacillus anthracis Sterne spores infected A/J mouse assessed as survival at 12.5 mg/kg, ip administered once daily for 6 days; type: functional; details: route intraperitoneal
[3] = tested on: Bacillus anthracis; assay: Protection against Bacillus anthracis Sterne spores infected A/J mouse at 12.5 mg/kg, ip administered once daily for 6 days; type: functional; details: route intraperitoneal
[4] = tested on: Bacillus anthracis; assay: Protection against Bacillus anthracis Sterne spores infected A/J mouse assessed as survival at 25 mg/kg, sc administered daily after 4 days post infection; type: functional; details: route subcutaneous
[5] = biological target: T1, Proprotein convertase subtilisin/kexin type 6 (Rattus norvegicus, UniProt Q63415)
T1 sequence (Q63415 whole entry): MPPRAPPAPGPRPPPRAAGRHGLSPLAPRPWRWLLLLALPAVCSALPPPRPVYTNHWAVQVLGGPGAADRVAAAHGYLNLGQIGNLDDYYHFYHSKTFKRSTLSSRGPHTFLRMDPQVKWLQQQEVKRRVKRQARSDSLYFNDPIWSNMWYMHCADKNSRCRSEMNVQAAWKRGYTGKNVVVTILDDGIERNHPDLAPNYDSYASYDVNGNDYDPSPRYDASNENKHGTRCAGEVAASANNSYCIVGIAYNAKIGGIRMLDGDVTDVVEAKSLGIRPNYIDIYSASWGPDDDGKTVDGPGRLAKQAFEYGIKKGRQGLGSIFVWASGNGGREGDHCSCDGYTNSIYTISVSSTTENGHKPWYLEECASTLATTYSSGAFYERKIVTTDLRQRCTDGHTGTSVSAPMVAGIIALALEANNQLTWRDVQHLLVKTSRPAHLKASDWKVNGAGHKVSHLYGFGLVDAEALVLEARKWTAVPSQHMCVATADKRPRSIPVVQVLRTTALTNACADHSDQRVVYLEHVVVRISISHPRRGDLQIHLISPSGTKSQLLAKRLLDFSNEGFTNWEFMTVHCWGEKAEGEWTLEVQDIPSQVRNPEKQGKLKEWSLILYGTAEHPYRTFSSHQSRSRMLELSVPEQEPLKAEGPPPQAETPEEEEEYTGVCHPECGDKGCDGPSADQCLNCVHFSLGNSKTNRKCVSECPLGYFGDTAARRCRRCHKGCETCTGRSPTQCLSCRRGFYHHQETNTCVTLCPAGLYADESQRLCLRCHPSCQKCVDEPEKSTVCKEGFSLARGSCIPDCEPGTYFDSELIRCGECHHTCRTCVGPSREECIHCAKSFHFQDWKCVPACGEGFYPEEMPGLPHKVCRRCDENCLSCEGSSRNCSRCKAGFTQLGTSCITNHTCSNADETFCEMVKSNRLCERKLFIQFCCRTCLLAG

[6] = biological target: T2, Furin (Homo sapiens, UniProt P09958)
[7] = biological target: T3, Proprotein convertase subtilisin/kexin type 4 (Homo sapiens, UniProt Q6UW60)
T3 sequence (Q6UW60 whole entry): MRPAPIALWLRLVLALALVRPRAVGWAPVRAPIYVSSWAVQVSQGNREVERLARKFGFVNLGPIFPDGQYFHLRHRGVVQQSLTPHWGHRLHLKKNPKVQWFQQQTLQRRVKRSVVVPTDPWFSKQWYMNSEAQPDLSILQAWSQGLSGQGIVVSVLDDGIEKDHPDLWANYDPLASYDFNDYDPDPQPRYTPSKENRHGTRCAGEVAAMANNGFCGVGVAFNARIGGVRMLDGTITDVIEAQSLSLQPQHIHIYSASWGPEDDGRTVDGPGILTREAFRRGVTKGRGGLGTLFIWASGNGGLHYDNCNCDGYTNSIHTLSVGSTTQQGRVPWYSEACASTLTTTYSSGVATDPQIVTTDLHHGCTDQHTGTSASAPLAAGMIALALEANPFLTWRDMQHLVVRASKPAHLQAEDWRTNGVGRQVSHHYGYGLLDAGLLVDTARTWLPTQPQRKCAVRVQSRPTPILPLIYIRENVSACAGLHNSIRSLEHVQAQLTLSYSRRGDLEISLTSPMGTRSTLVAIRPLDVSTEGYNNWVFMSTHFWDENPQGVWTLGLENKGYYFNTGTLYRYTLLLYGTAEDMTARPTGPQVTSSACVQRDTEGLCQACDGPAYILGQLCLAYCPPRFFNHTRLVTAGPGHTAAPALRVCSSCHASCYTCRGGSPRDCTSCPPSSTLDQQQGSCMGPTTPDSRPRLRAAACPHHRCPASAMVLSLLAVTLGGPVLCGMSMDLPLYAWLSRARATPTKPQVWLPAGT

[8] = biological target: Proprotein convertase subtilisin/kexin type 5 (Homo sapiens, UniProt Q92824)
[9] = biological target: T4, Proprotein convertase subtilisin/kexin type 7 (Homo sapiens, UniProt Q16549)
T4 sequence (Q16549 whole entry): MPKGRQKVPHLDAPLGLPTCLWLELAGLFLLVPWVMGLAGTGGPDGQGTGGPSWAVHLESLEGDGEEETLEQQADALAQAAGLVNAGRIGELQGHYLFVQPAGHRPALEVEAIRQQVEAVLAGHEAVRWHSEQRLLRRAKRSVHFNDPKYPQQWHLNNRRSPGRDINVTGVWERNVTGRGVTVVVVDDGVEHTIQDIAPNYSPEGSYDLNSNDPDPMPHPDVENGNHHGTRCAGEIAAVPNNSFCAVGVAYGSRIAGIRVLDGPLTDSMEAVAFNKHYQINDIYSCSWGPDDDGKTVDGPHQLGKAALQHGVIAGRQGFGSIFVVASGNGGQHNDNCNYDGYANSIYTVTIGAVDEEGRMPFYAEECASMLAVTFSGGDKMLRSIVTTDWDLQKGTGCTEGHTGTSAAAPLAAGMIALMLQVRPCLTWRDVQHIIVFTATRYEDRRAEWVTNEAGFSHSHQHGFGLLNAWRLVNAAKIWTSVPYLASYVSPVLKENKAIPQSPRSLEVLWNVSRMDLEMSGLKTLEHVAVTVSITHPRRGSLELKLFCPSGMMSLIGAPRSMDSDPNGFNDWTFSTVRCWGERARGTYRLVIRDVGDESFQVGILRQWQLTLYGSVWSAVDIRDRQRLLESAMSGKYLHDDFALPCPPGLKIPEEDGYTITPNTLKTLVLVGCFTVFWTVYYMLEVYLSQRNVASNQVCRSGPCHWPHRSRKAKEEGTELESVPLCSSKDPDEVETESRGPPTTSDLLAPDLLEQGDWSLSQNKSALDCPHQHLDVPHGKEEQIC

[10] = tested on: U-251; assay: Inhibition of proprotein convertase-mediated anthrax protective antigen-83 processing in human U251 cells at 20 uM by Western blot; type: cell-based; details: Bacillus anthracis
[11] = tested on: RAW264.7; assay: Cytotoxicity against mouse RAW264.7 cells =< 0.5 mM after 4 hrs by MTT assay; type: cell-based; details: raw264.7, 4 h
[12] = biological target: T2, Furin; assay: Inhibition of furin-mediated Pseudomonas exotoxin A proteolysis by peptide cleavage reaction
[13] = tested on: Mus musculus; assay: Protection against Pseudomonas exotoxin A-induced toxicity in C57BL/6 mouse assessed as survival at 12.5 mg/kg, ip once daily administered 1 hr prior to toxin challenge; type: functional; details: C57BL/6, ip, route intraperitoneal
[14] = tested on: U-251; assay: Inhibition of proprotein convertase-dependent delivery of PA63-lethal toxin complex into cytosol in human U251 cells at 20 uM; type: cell-based; details: Bacillus anthracis

Chain of Proprotein convertase subtilisin/kexin type 5 (Q92824 whole entry): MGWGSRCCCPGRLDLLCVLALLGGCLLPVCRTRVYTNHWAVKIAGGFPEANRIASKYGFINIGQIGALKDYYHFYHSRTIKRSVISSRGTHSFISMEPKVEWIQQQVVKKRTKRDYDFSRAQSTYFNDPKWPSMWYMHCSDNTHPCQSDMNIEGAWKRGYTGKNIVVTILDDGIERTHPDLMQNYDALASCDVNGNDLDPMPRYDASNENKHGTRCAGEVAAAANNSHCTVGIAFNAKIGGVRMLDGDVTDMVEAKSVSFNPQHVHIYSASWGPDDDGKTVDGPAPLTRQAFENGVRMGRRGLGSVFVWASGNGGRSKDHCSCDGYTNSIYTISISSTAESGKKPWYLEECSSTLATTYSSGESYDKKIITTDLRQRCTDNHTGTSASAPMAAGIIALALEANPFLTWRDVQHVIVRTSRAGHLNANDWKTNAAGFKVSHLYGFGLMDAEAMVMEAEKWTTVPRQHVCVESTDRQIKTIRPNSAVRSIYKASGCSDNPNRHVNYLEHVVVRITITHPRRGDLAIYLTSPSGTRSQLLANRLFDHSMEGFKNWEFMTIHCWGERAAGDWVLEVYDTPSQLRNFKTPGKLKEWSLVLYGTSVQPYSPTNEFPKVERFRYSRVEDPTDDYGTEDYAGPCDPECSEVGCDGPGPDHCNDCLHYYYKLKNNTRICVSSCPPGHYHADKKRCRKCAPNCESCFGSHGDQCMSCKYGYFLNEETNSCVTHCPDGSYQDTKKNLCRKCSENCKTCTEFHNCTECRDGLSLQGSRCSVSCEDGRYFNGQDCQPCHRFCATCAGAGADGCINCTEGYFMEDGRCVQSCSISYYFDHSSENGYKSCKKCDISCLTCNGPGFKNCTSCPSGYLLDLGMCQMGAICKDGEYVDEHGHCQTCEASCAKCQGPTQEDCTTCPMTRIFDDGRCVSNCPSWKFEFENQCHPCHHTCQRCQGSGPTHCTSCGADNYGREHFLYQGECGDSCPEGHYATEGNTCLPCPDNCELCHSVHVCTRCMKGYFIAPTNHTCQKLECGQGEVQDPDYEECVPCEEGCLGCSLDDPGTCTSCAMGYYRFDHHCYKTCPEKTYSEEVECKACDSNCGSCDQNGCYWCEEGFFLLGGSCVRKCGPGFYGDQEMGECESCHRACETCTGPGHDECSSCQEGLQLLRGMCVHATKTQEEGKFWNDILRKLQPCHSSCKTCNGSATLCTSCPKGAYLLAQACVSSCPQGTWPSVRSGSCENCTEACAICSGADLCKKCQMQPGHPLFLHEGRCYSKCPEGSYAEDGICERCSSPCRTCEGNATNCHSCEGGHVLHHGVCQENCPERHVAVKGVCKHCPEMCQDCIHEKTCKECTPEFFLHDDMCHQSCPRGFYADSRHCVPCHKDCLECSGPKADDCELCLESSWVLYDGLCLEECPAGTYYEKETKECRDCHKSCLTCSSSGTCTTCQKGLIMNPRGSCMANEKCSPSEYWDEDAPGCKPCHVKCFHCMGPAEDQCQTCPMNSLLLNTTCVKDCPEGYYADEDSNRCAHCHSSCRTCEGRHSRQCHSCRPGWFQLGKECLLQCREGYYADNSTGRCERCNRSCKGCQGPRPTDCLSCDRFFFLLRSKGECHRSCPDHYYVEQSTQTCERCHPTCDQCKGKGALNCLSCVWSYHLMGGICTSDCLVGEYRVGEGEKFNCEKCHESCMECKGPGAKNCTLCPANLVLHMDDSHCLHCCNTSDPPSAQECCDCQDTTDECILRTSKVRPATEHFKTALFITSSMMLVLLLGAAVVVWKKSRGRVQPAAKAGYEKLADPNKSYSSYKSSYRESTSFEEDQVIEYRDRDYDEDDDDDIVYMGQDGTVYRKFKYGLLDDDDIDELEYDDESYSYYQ
T2 sequence (P09958 whole entry): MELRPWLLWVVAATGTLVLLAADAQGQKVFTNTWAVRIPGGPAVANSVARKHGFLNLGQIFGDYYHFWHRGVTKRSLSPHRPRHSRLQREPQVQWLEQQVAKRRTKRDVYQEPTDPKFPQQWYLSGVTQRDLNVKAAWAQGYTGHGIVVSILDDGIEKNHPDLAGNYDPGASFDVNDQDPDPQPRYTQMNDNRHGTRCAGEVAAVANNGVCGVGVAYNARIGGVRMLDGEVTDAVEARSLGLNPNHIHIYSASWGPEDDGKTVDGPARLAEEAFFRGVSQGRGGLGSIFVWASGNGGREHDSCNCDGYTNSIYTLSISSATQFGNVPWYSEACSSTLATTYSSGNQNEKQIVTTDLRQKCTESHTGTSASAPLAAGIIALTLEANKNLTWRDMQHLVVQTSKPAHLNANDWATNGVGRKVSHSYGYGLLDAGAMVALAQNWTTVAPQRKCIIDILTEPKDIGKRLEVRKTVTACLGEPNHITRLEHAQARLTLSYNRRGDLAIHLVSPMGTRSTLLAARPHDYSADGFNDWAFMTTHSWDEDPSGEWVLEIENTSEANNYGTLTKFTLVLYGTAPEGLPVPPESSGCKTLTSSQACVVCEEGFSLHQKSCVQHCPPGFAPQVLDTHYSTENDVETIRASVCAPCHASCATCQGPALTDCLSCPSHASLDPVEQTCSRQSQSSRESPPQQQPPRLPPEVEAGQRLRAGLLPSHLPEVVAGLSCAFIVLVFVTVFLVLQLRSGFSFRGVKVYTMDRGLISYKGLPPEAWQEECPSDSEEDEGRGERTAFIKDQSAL

In the case of `CNC(=O)[C@H](Cc1c[nH]c2ccccc12)NC(=O)[C@@H](CC(=O)NO)CC(C)C`, the Activity [1] is reported as “Active”.

`C[C@H](NC(=O)[C@H](CCCNC(=N)N)NC(=O)[C@@H]1CCCN1C(=O)[C@@H](NC(=O)CCN)[C@@H](C)O)C(=O)N[C@@H](CCCNC(=N)N)C(=O)N[C@@H](CCCNC(=N)N)C(=O)N[C@@H](CCCNC(=N)N)C(=O)N[C@@H](CCCCN)C(=O)N[C@@H](CCCCN)C(=O)N[C@@H](CCCNC(=N)N)C(=O)N[C@H](C(N)=O)[C@@H](C)O` (H-[βAla]TPRARRRKKRT-NH2) showed a Survival [2] of 6.63 days and an Activity [3] of 40%.

With `O=C(O)c1cn(C2CC2)c2cc(N3CCNCC3)c(F)cc2c1=O` [CIPROFLOXACIN] the Survival [4] was 6 days.

With H-TPQRARRRKKRF-OH the Ki [5] was 602 nM, the Ki [6] was 38 nM and the Ki [7] was 772 nM. The Ki [8] was 806 nM and the Ki [9] was 1130 nM.

Work on H-TPQRARRRKKRT-OH yielded a Ki [5] of 296 nM, a Ki [6] of 33 nM and a Ki [7] of 515 nM. For the same compound, the Ki [8] was 188 nM and the Ki [9] was 206 nM.

H-TPQRARRRKKRW-OH was tested, and the Ki [5] was 192 nM, the Ki [6] was 34 nM and the Ki [7] was 952 nM. It also gave a Ki [8] of 433 nM and a Ki [9] of 172 nM.

H-TPQRARRRKKRY-OH gave a Ki [5] of 1020 nM, a Ki [6] of 47 nM and a Ki [7] of 624 nM. It also gave a Ki [8] of 649 nM and a Ki [9] of 1220 nM.

With H-TPRARRRKKRF-NH2 the Activity [10] was “Active”.

For H-TPRARRRKKRF-OH, the Activity [10] was “Active” and the Ki [6] was 38 nM.

H-TPRARRRKKRI-NH2 was tested, and the Ki [5] was 267 nM, the Ki [6] was 30 nM and the Ki [7] was 562 nM. It also gave a Ki [8] of 492 nM and a Ki [9] of 135 nM.

With H-TPRARRRKKRT-NH2 the Ki [5] was 162 nM, the Activity [10] was “Active” and the Activity [11] was “Non-toxic”. The Activity [12] was “Active”, the survival at 12.5 mg/kg [13] was 60% and the Activity [14] was “Active”. The Activity [1] was “Active”, the Ki [7] was 441 nM and the Ki [8] was 232 nM. It also gave a Ki [9] of 135 nM.

With H-TPRARRRKKRT-OH the Activity [10] was “Active” and the Ki [6] was 23 nM.

For H-TPRARRRKKRW-NH2, the Activity [10] was “Active” and the Ki [6] was 59 nM.

In the case of H-TPRARRRKKRW-OH, the Activity [10] is reported as “Active”.

H-TPRARRRKKRY-NH2 was tested, and the Activity [10] was “Active” and the Ki [6] was 53 nM.

In the case of H-TPRARRRKKRY-OH, the Activity [10] is reported as “Active”.

H-TPRQRRRKKRG-OH was tested, and the Ki [6] was > 100 nM.

For H-TPRRRRRKKRG-NH2, the Ki [6] was > 100 nM.

In the case of H-TPRRRRRKKRG-OH, the Ki [6] is reported as > 100 nM.

H-TPRSRRRKKRG-NH2 was tested, and the Ki [6] was > 100 nM.

In the case of H-TPRSRRRKKRG-OH, the Ki [6] is reported as > 100 nM.

With H-TPRTRRRKKRG-NH2 the Ki [6] was > 100 nM.

In the case of H-TPRTRRRKKRG-OH, the Ki [6] is reported as > 100 nM.

For H-TPRVRRRKKRG-NH2, the Ki [6] was > 100 nM.

H-TPRVRRRKKRG-OH was tested, and the Ki [6] was > 100 nM.

H-TPRWRRRKKRG-NH2 was tested, and the Ki [6] was > 100 nM.

H-TPRWRRRKKRG-OH was tested, and the Ki [6] was > 100 nM.

With H-TPRYRRRKKRG-NH2 the Ki [6] was > 100 nM.

For H-TPRYRRRKKRG-OH, the Ki [6] was > 100 nM.
